Experimental data reported in patent publication US20240228481A1, “NOVEL SULFONAMIDE SERIES OF QR2 INHIBITORS TO TACKLE OXIDATIVE STRESS AND COGNITIVE DECLINE” (CARMEL HAIFA UNIVERSITY ECONOMIC CORPORATION LTD., priority 2021, published 2024).

Tests used:
QR2 [1] = molecular target: T1, QR2 (Homo sapiens, UniProt P16083); assay: QR2 enzymatic activity assay (menadione/BNAH), fluorescence readout; type: biochemical; set-up: purchased Sigma-Aldrich
T1 sequence (P16083 1-231): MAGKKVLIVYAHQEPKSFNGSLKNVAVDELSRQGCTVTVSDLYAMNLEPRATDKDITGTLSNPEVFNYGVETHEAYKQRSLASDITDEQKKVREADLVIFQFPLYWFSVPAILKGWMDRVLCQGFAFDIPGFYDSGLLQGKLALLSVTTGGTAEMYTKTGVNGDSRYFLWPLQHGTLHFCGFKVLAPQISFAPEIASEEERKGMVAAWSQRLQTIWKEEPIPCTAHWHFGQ
Protocol: (§1) The enzymatic activity of QR2 (10 nM) was measured using menadione (both Sigma-Aldrich) as substrate and dihydrobenzylnicotamide (BNAH; Tocris) as co-substrate (Boutin et al., 2005). The reaction was performed in 50 mM Tris HCl, 150 mM NaCl 0.01% Tween-20 pH=8.5 (Sigma-Aldrich) at room temperature. Briefly, 3 μL of menadione alone (200 μM) or a mixture of menadione and QR2 (200 μM of menadione and 10 nM of QR2) were dispensed in 1536-well black Nunc plates (Thermo-Fisher) using a Multidrop™ Combi Reagent Dispenser (Thermo-Fisher) and pre-incubated with compounds for 10 min. BNAH (200 μM) was then added (3 μL) to the reaction using a BioNex Solutions BNX 1536 plate washer and the plates were incubated for another 10 min. […] The initial HTS was done with approximately 200,000 compounds at a single concentration of 5 μM. The chemical libraries used were Selleck Chemicals Bioactives, the Drug-like set from Enamine, HitFinder collection from Maybridge, Spectrum Collection from Microsource, Lopac from Sigma-Aldrich and the diversity sets from ChemDiv and ChemBridge. Initial “hit” compounds were defined as causing >30% reduction of enzyme activity. […] “Hit” compounds resulting from both the fluorescence and absorbance assay were tested in a dose-response, and median inhibition concentration (IC50) values were determined. In parallel, the same dose response was used in a selectivity assay where QR2 enzyme was replaced by QR1 (also known as—NQO1, 10 nM; Sigma-Aldrich).
(§2) In order to establish a varied, flexible and chemically amenable starting point from which to develop such inhibitors, the inventors ran a standardized QR2 assay (see methods) against ˜200,000 compounds, from a varied assortment of chemical libraries.

in vitro = conditions: human
QR1 (NQO1) [2] = molecular target: T2, QR1 (NQO1) (Homo sapiens, UniProt P15559); assay: Selectivity assay with QR1 in place of QR2, fluorescence readout; type: biochemical
T2 construct: purchased Sigma-Aldrich
Protocol: (§3) The enzymatic activity of QR2 (10 nM) was measured using menadione (both Sigma-Aldrich) as substrate and dihydrobenzylnicotamide (BNAH; Tocris) as co-substrate (Boutin et al., 2005). The reaction was performed in 50 mM Tris HCl, 150 mM NaCl 0.01% Tween-20 pH=8.5 (Sigma-Aldrich) at room temperature. Briefly, 3 μL of menadione alone (200 μM) or a mixture of menadione and QR2 (200 μM of menadione and 10 nM of QR2) were dispensed in 1536-well black Nunc plates (Thermo-Fisher) using a Multidrop™ Combi Reagent Dispenser (Thermo-Fisher) and pre-incubated with compounds for 10 min. BNAH (200 μM) was then added (3 μL) to the reaction using a BioNex Solutions BNX 1536 plate washer and the plates were incubated for another 10 min. […] The initial HTS was done with approximately 200,000 compounds at a single concentration of 5 μM. The chemical libraries used were Selleck Chemicals Bioactives, the Drug-like set from Enamine, HitFinder collection from Maybridge, Spectrum Collection from Microsource, Lopac from Sigma-Aldrich and the diversity sets from ChemDiv and ChemBridge. Initial “hit” compounds were defined as causing >30% reduction of enzyme activity. Compounds suspected to be fluorescent were re-assayed in an absorbance assay at 350 nm using the same reaction but in a higher volume (100 μL), in a transparent plate (Greiner Bio-One). “Hit” compounds resulting from both the fluorescence and absorbance assay were tested in a dose-response, and median inhibition concentration (IC50) values were determined. In parallel, the same dose response was used in a selectivity assay where QR2 enzyme was replaced by QR1 (also known as—NQO1, 10 nM; Sigma-Aldrich).
(§4) In order to establish a varied, flexible and chemically amenable starting point from which to develop such inhibitors, the inventors ran a standardized QR2 assay (see methods) against ˜200,000 compounds, from a varied assortment of chemical libraries. […] Compounds that replicated the initial hit result were then assayed similarly, against NQO1, to evaluate compound specificity (FIG. 1B). From the HTS, a series of compounds containing a sulfonamide central linker, with an amine on one side and a heterocycle on the other, were identified and selected for SAR development (FIG. 1C).

QR2 [3] = molecular target: T1, QR2; assay: QR2 enzymatic activity assay (menadione/BNAH), absorbance readout at 350 nm; type: biochemical; set-up: purchased Sigma-Aldrich
Protocol: as §1, §2

QR1 (NQO1) [4] = molecular target: T2, QR1 (NQO1); assay: Selectivity assay with QR1 in place of QR2, absorbance readout; type: biochemical
Protocol: as §3, §4

T2 sequence (P15559 whole entry): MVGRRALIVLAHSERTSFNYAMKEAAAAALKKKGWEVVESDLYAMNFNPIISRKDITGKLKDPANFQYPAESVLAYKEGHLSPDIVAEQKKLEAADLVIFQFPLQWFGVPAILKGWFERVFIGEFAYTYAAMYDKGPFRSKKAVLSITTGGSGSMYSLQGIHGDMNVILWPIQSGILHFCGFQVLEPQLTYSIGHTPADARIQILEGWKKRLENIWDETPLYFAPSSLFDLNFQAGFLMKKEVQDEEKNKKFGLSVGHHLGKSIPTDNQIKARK

Row | IC50 (QR2 [1]) | IC50 at 72 h (in vitro) | IC50 (QR1 (NQO1) [2]) | IC50 (QR2 [3]) | IC50 (QR1 (NQO1) [4]) | Compound
1 | 0.02 µM | > 99 µM | > 9.99 µM | 0.03 µM | > 9.99 µM | Cc1ccc(-c2cn3cccc(C)c3n2)cc1S(=O)(=O)N1CCCCCC1 [PCM-0214338]
2 | 1.92 µM | 23.8 µM | > 9.99 µM | 1.24 µM | > 9.99 µM | Cc1cc(-c2ccc(C)c(S(=O)(=O)N3CCCCCC3)c2)on1 [PCM-0212385]
3 | 0.42 µM | 65.1 µM | > 9.99 µM | 0.75 µM | > 9.99 µM | Cc1cc(-c2ccc(C)c(S(=O)(=O)N3CCCC3)c2)on1 [PCM-0212386]
4 | 0.19 µM | > 100 µM | > 9.99 µM | 0.02 µM | > 9.99 µM | Cc1cccn2cc(-c3cccc(S(=O)(=O)N(C)C)c3)nc12 [PCM-0213804]
5 | 1.19 µM | 124 µM | > 9.99 µM | 1.25 µM | > 9.99 µM | Cc1cc(-c2ccc(C)c(S(=O)(=O)N3CCN(C(=O)c4ccco4)CC3)c2)on1 [PCM-0212388]
6 | 0.004 µM | 45.4 µM | 5.83 µM | 0.01 µM | 7.24 µM | Cc1cccn2cc(-c3cccc(S(=O)(=O)N4CCCCCC4)c3)nc12 [PCM-0124812]
7 | 2.36 µM | – | > 9.99 µM | 1.16 µM | > 9.99 µM | Cc1cc(-c2ccc(C)c(S(=O)(=O)Nc3ccc(Cl)cc3)c2)[nH]n1 [PCM-0186036]
8 | > 9.9 µM | – | > 9.9 µM | 8.09 µM | > 9.99 µM | CCc1noc(-c2c(S(=O)(=O)NCc3cccc(OC)c3)c(C)n(C)c2C)n1 [PCM-0200337]
9 | > 9.9 µM | – | 4.6 µM | 8.89 µM | > 9.99 µM | CCCS(=O)(=O)Nc1ccc2c(c1)C(=O)Nc1cc(C)ccc1O2 [PCM-0120253]
10 | 7.4 µM | – | > 9.99 µM | 4.58 µM | > 9.99 µM | Cc1nc(-c2ccc(C)c(S(=O)(=O)N3CCC(C)CC3)c2)cs1 [PCM-0197104]
11 | > 9.9 µM | – | > 9.9 µM | 9.05 µM | > 9.99 µM | CCCn1cc(C2=CCN(S(=O)(=O)Cc3ccccc3)CC2)c2cccnc21 [PCM-0105851]
12 | > 9.99 µM | – | > 9.99 µM | 2.44 µM | > 9.99 µM | Cc1nc(-c2ccc(C)c(S(=O)(=O)N3CCCCCC3)c2)cs1 [PCM-0213796]
13 | 0.9 µM | – | > 9.99 µM | 0.27 µM | > 9.99 µM | Cc1cc(-c2ccc(C)c(S(=O)(=O)N3CCC(C)CC3)c2)n[nH]1 [PCM-0213799]
14 | 0.02 µM | > 99 µM | > 9.99 µM | 0.02 µM | 7.18 µM | Cc1cccn2cc(-c3cccc(S(=O)(=O)NCc4cccnc4)c3)nc12 [PCM-0213814]
15 | 0.93 µM | – | > 9.99 µM | 0.28 µM | > 9.99 µM | Cc1cc(-c2ccc(C)c(S(=O)(=O)NCCCN3CCCC3=O)c2)n[nH]1 [PCM-0213815]
16 | 3.59 µM | – | 5.39 µM | 8.98 µM | > 9.99 µM | CCOC(=O)c1c(S(=O)(=O)N(CC)c2cccc(C)c2)c(C)n(C)c1C [PCM-0119438]
17 | 1.27 µM | – | > 9.99 µM | 0.41 µM | > 9.99 µM | Cc1ccn2cc(-c3cccc(S(=O)(=O)N4CCCCCC4)c3)nc2c1 [PCM-0213798]
18 | 4.42 µM | – | > 9.9 µM | 3.03 µM | > 9.99 µM | Cc1ccc2nc(-c3cccc(S(=O)(=O)N4CC(C)OC(C)C4)c3)cn2c1 (centres unmarked) [PCM-0124655]

Row | IC50 (QR2 [1]) | IC50 at 72 h (in vitro) | IC50 (QR1 (NQO1) [2]) | IC50 (QR2 [3]) | IC50 (QR1 (NQO1) [4]) | Compound
19 | > 9.9 µM | – | > 9.9 µM | > 9.99 µM | > 9.99 µM | CCCS(=O)(=O)N1CCCc2cc(NC(=O)c3ccco3)ccc21 [PCM-0120563]
20 | > 9.9 µM | – | > 9.9 µM | > 9.99 µM | > 9.99 µM | CS(=O)(=O)N(C1CC1)C1CCOC2(CCN(C(=O)C3(c4ccccc4)CC3)CC2)C1 (centres unmarked) [PCM-0207818]
21 | 0.83 µM | – | 8.77 µM | 2.03 µM | > 9.99 µM | COc1ccc(OC)c(S(=O)(=O)Nc2cccc(-c3cn4c(C)csc4n3)c2)c1 [PCM-0121306]
22 | 3.26 µM | 219 µM | > 9.9 µM | 2.37 µM | > 9.99 µM | Cc1cc(-c2ccc(C)c(S(=O)(=O)NCCCN3CCCC3=O)c2)on1 [PCM-0184891]
23 | 3.38 µM | – | > 9.99 µM | 1.06 µM | > 9.99 µM | Cc1ccc(-c2nnc(-c3ccccc3)o2)cc1S(=O)(=O)N1CCCCCC1 [PCM-0213797]
24 | 0.51 µM | – | > 9.99 µM | 0.18 µM | > 9.99 µM | Cc1ccn2cc(-c3ccc(C)c(S(=O)(=O)N4CCCC4)c3)nc2c1 [PCM-0213809]
25 | 2.31 µM | 215 µM | > 9.99 µM | 1.71 µM | > 9.99 µM | Cc1cc(-c2ccc(C)c(S(=O)(=O)N(C)C)c2)on1 [PCM-0212389]
26 | 2.72 µM | 249 µM | > 9.9 µM | 2.16 µM | > 9.99 µM | Cc1cc(-c2ccc(C)c(S(=O)(=O)NCc3cccnc3)c2)on1 [PCM-0184959]
27 | > 9.9 µM | – | > 9.9 µM | 8.43 µM | > 9.99 µM | CS(=O)(=O)N(Cc1cccnc1)C1CN(C(=O)c2c[nH]c3ccccc23)C1 [PCM-0105406]
28 | 5.97 µM | – | > 9.99 µM | 1.2 µM | > 9.99 µM | Cc1ccc(-c2nnc(-c3ccccc3)o2)cc1S(=O)(=O)N1CCC(C)CC1 [PCM-0127586]
29 | 0.17 µM | – | > 9.99 µM | 0.05 µM | > 9.99 µM | Cc1cc(-c2ccc(C)c(S(=O)(=O)N3CCCC3)c2)n[nH]1 [PCM-0213806]
30 | 3.16 µM | – | > 9.99 µM | 0.98 µM | > 9.99 µM | Cc1cc(-c2ccc(C)c(S(=O)(=O)NCc3cccnc3)c2)n[nH]1 [PCM-0213811]
31 | > 9.9 µM | – | > 9.9 µM | > 9.99 µM | > 9.99 µM | Cc1csc(-c2cc(S(=O)(=O)NC3CCCCC3)c(C)n2C)n1 [PCM-0195577]
32 | 3.96 µM | 59.4 µM | – | 4.49 µM | – | Cc1ccn2cc(-c3ccc(C)c(S(=O)(=O)N4CCC(C)CC4)c3)nc2c1 [PCM-0214339]
33 | 2.18 µM | – | > 9.9 µM | 1.22 µM | > 9.99 µM | Cc1ccn2cc(-c3cccc(S(=O)(=O)N4CC(C)CC(C)C4)c3)nc2c1 (centres unmarked) [PCM-0124575]
34 | 4.16 µM | – | > 9.9 µM | 3.2 µM | > 9.99 µM | CCOC(=O)C1CCN(S(=O)(=O)c2cc(-c3csc(C)n3)ccc2C)CC1 [PCM-0197024]
35 | 0.83 µM | – | > 9.9 µM | 0.75 µM | > 9.99 µM | CCCN(CCC)S(=O)(=O)c1cccc(-c2cn3cccc(C)c3n2)c1 [PCM-0124772]
